In ChEMBL document CHEMBL1126372, “Synthesis of L-chiro-inositol 1,4,6-trisphosphorothioate, a potent and selective inhibitor of myo-inositol 1,4,5-trisphosphate 5-phosphatase” (Bioorg Med Chem Lett, 1992):
pEC50, pKi: −log10 of the molar value. The source made the active and inactive calls.

Key:
[1] = Tested for the ability to inhibit dephosphorylation of [3H]Ins(1,4,5)P3 of human erythrocyte membrane Ins(1,4,5)P3 5- phosphatase; assay type: functional
[2] = Effective concentration required to mobilize [Ca2+] from intracellular stores using electrically permeabilised human neuroblastoma cells; assay type: functional, cell-based
[3] = Inhibition of [3H]Ins(1,4,5)P3 phosphorylation by crude rat brain Ins(1,4,5)P3 3-kinase at 250 uM (Inactive); assay type: functional

Row | pEC50 [2] | Structure (SMILES) | pKi [1] | inhibition [3]
1 | – | OC1C(O)C(OP(O)(O)=S)C(OP(O)(O)=S)C(O)C1OP(O)(O)=S (stereo in doubt; 8) [listing 1 of 2 here] | 6.52 | –
2 | 6.92 | O=P(O)(O)O[C@@H]1[C@H](O)[C@H](O)[C@@H](OP(=O)(O)O)[C@H](OP(=O)(O)O)[C@H]1O [INS(1,4,5)P3] | 4.36 | inactive
3 | – | O=P(O)(O)OC1C(O)C(O)C(OP(=O)(O)O)C(OP(O)(O)=S)C1O (stereo in doubt; 4) | 3.01 | –
4 | – | OC1C(O)C(OP(O)(O)=S)C(OP(O)(O)=S)C(O)C1OP(O)(O)=S (stereo in doubt) | 5.77 | –
5 | – | OC1C(O)C(OP(O)(O)=S)C(OP(O)(O)=S)C(O)C1OP(O)(O)=S (stereo in doubt; 2) | 3.46 | –
6 | – | O=P(O)(O)OC1C(O)C(O)C(OP(=O)(O)O)C(OP(O)(O)=S)C1O (stereo in doubt) | 5.17 | –
7 | – | OC1C(O)C(OP(O)(O)=S)C(OP(O)(O)=S)C(O)C1OP(O)(O)=S (stereo in doubt; 8) [listing 2 of 2 here] | – | inactive
